Laboratory results reported in patent US9399623B2, “Quinoline derivatives and their use in neurodegenerative diseases” (Merck Patent GmbH, priority 2014, dated 2016).

Experiments:
P2X7 [1] = molecular target: T1, P2X7 (Homo sapiens, UniProt Q99572); test: Pore permeation assay (YO PRO dye uptake, BzATP-induced); format: cell-based; parameters: expressed in transfected cells; host or cells: HEK293; details: HEK293 transfected with human P2X7 receptor; YO PRO dye 1 uM, BzATP 10 uM; read-out: hP2X7 IC50
T1 sequence (Q99572 1-595): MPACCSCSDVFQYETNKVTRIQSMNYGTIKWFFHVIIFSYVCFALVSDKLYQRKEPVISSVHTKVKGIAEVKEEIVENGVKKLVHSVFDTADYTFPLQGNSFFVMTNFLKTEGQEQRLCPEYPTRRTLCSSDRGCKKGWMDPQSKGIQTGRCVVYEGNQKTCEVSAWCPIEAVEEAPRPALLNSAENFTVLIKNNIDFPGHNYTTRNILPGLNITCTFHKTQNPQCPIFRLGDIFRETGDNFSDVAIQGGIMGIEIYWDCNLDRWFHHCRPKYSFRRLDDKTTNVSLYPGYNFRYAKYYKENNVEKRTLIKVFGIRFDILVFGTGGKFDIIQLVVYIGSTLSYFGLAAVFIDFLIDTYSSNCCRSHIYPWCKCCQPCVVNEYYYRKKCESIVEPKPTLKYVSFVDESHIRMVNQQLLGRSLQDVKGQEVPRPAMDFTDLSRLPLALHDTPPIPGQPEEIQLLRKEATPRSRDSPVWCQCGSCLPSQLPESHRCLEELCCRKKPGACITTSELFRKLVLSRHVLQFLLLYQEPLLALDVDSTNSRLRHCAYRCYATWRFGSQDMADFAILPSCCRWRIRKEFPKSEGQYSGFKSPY
Method: Agonist-induced pore formation was determined by measuring cellular uptake of YO PRO fluorescence dye in HEK293 transfected with human P2X7 receptor. A HEK293 cell over expressing human P2X7 was harvested using HQTase reagent to detach the cells from T75 cm flask. The harvested cells are centrifuged @ 1200 rpm for 5 min at room temperature. The viability of cells was determined by Trypan blue dye and the cells are plated @ 10,000 cell/well in 50 ul volume in a 384 W BD Poly lysine coated plate and incubated overnight at 37 C. After overnight incubation, the culture medium was replaced with 35 ul/well assay buffer (5 mM KCl, 0.1 mM CaCl2, 5 mM Glucose, 10 mM HEPES buffer pH7.4 containing 125 mM NaCl. The serial dilution of compounds was performed using Bravo liquid handling instrument and the compounds were added using Bravo to the cell assay plate starting at 2.5 uM with three dilutions for 10 points. The positive control inhibitor compound was added to column 23. The plate was shaken slowly on a plate shaker for 10 seconds. The cells were incubated with the compound for 20 minutes at room temperature. After the incubation period, YO PRO dye (1 uM) along with BzATP (10 uM) were added to cells at 10 ul/well. The plate was centrifuged at 1000 rpm for 5 seconds and incubated at room temperature for 30 minutes. The uptake of YO PRO dye into the cells was measured using Envision Fluorescence plate reader instrument (Perkin Elmer).

P2X7 [2] = molecular target: T1, P2X7; test: IL-1β release assay in THP-1 cells (sandwich ELISA); format: cell-based; parameters: release of mature IL-1β in the culture medium of THP-1 cells; endogenous in cells; host or cells: THP-1 cells (PMA-differentiated, LPS-primed); details: PMA, LPS primed, stimulated with 0.8 mM BzATP, mature IL-1β release, read-out: hTHP-1/IL-ib IC50
Method: The activation of P2X7 by ATP leads to a fast transient activation of cells resulting in influx of Ca^2+ followed by conversion of pro-IL-1β to active IL-1β. The functional activity of P2X7 compounds was measured by the release of mature IL-1β in the culture medium of THP-1 cells, detected by sandwich ELISA. Cells were maintained in complete growth medium (RPMI 1640+10% HI-FCS+2 mM L-glutamine+1×PS). […] THP-1 cells were harvested from the flask in 50 ml by centrifugation for 3 min at 100 g. The cells were resuspended to 2×10^5 cells/ml in medium supplemented with 0.5 μM PMA and incubated. The cells were washed and resuspended to 1.5×10^5 cells/ml in medium complemented with 10 ng/ml LPS, and the cells were primed for 4 h at 37° C., 5% CO2. After addition of 20 μL of prediluted test compounds, blank, standard and control reagents, cells were incubated for a further 20 min at 37° C. and stimulated with 0.8 mM BzATP for 30 minutes. The cells were centrifuged, supernatant was collected and the presence of mature IL-1β was detected using Dual human IL-1b kit following manufacturer's instruction. The tetrahydrobenzodiazepine analogs effectively modulated the activity of P2X7 in the cells as measured by the levels of pro-inflammatory cytokine IL-1β, which is released by the activation of P2X7 receptor.

SMILES | IC50 (P2X7 [1]) | IC50 (P2X7 [2])
O=C(NCC1CCCC(F)(F)C1)c1c(Cl)ccc2nc(N3CC[C@@H](F)C3)ccc12 (stereo partly drawn) [Compound 1, 6-Chloro-2-((R)-3-fluoropyrrolidin-1-yl)-quinoline-5-carboxylic acid (3,3-difluoro-cyclohexylmethyl)-amide] | < 10 nM | 10 to 100 nM
C[C@H]1CCC[C@@](O)(CNC(=O)c2c(Cl)ccc3nc(N4CCCC4)ccc23)C1 [Compound 2, 6-Chloro-2-pyrrolidin-1-yl-quinoline-5-carboxylic acid ((1S,3S)-1-hydroxy-3-methyl-cyclohexylmethyl)-amide] | < 10 nM | –
O=C(NCC1CCCC(F)(F)C1)c1c(Cl)ccc2nc(N3CC[C@H](F)C3)ccc12 (stereo partly drawn) [Compound 3, 6-Chloro-2-((S)-3-fluoropyrrolidin-1-yl)-quinoline-5-carboxylic acid (3,3-difluoro-cyclohexylmethyl)-amide] | < 10 nM | 101 to 500 nM
C[C@@H]1CCC[C@](O)(CNC(=O)c2c(Cl)ccc3nc(N4CC[C@H](N(C)C)C4)ccc23)C1 [Compound 4, 6-Chloro-2-((S)-3-dimethylamino-pyrrolidin-1-yl)-quinoline-5-carboxylic acid ((1R,3R)-1-hydroxy-3-methyl-cyclohexylmethyl)-amide] | < 10 nM | < 10 nM
C[C@@H]1CCC[C@](O)(CNC(=O)c2c(Cl)ccc3nc(N4CCC(F)C4)ccc23)C1 (stereo partly drawn) [Compound 5, 6-Chloro-2-(3-fluoropyrrolidin-1-yl)-quinoline-5-carboxylic acid ((1R,3R)-1-hydroxy-3-methyl-cyclohexylmethyl)-amide] | < 10 nM | 10 to 100 nM
C[C@@H]1CCC[C@](O)(CNC(=O)c2c(Cl)ccc3nc(N4CCC(N(C)C)C4)ccc23)C1 (stereo partly drawn) [Compound 6, 6-Chloro-2-(3-dimethylamino-pyrrolidin-1-yl)-quinoline-5-carboxylic acid ((1R,3R)-1-hydroxy-3-methyl-cyclohexylmethyl)-amide] | < 10 nM | 10 to 100 nM
C[C@H]1CCC[C@@](O)(CNC(=O)c2c(Cl)ccc3nc(C4CCCC4)ccc23)C1 [Compound 7, 6-Chloro-2-cyclopentyl-quinoline-5-carboxylic acid ((1S,3S)-1-hydroxy-3-methyl-cyclohexylmethyl)-amide] | < 10 nM | –
C[C@@H]1CCC[C@](O)(CNC(=O)c2c(Cl)ccc3nc(N4CC[C@@H](F)C4)ccc23)C1 [Compound 8, 6-Chloro-2-(3-(R)-fluoropyrrolidin-1-yl)-quinoline-5-carboxylic acid ((1R,3R)-1-hydroxy-3-methyl-cyclohexylmethyl)-amide] | < 10 nM | 10 to 100 nM
C[C@@H]1CCC[C@](O)(CNC(=O)c2c(Cl)ccc3nc(N4CC[C@H](F)C4)ccc23)C1 [Compound 9, 6-Chloro-2-(3-(S)-fluoropyrrolidin-1-yl)-quinoline-5-carboxylic acid ((1R,3R)-1-hydroxy-3-methyl-cyclohexylmethyl)-amide] | < 10 nM | 10 to 100 nM
CC1CCCC(O)(CNC(=O)c2c(Cl)ccc3nc(N4CC[C@@H](N(C)C)C4)ccc23)C1 (stereo partly drawn) [Compound 14] | < 10 nM | –
C[C@@H]1CCC[C@](O)(CNC(=O)c2c(Cl)ccc3nc(C4CCCC4)ccc23)C1 [Compound 15, 6-Chloro-2-cyclopentyl-quinoline-5-carboxylic acid ((1R,3R)-1-hydroxy-3-methyl-cyclohexylmethyl)-amide] | < 10 nM | –
C[C@@H]1CCC[C@](O)(CNC(=O)c2c(Cl)ccc3nc(N4CCCC4)ccc23)C1 [Compound 16, 6-Chloro-2-pyrrolidin-1-yl-quinoline-5-carboxylic acid ((1R,3R)-1-hydroxy-3-methyl-cyclohexylmethyl)-amide] | < 10 nM | –
C[C@@H]1CCC[C@](O)(CNC(=O)c2c(Cl)ccc3nc(N4CC[C@@H](N(C)C)C4)ccc23)C1 [Compound 22, 6-Chloro-2-((R)-3-dimethylamino-pyrrolidin-1-yl)-quinoline-5-carboxylic acid ((1R,3R)-1-hydroxy-3-methyl-cyclohexylmethyl)-amide] | 10 to 100 nM | –
O=C(NCC1CCC(F)(F)CC1)c1c(Cl)ccc2nc(C3CCCC3)ccc12 [Compound 43, 6-Chloro-2-cyclopentyl-quinoline-5-carboxylic acid (4,4-difluoro-cyclohexylmethyl)-amide] | 10 to 100 nM | –
O=C(NCC1CCC(F)(F)CC1)c1c(Cl)ccc2nc(C3CCNCC3)ccc12 [Compound 53, 6-Chloro-2-piperidin-4-yl-quinoline-5-carboxylic acid (4,4-difluorocyclohexylmethyl)-amide] | 10 to 100 nM | –
O=C(NCC1CCC(F)(F)CC1)c1c(Cl)ccc2nc(N3CCC(O)C3)ccc12 (stereo not drawn) [Compound 57, 6-Chloro-2-(3-hydroxy-pyrrolidin-1-yl)-quinoline-5-carboxylic acid (4,4-difluoro-cyclo hexylmethyl)-amide] | 10 to 100 nM | –
CC(C)(C)OC(=O)N1CCC(c2ccc3c(C(=O)NCC4CCC(F)(F)CC4)c(Cl)ccc3n2)CC1 [Compound 71, 4-{6-Chloro-5-[(4,4-difluoro-cyclohexylmethyl)-carbamoyl]-quinolin-2-yl}-piperidine-1-carboxylic acid tert-butyl ester] | 10 to 100 nM | –
O=C1C=C(c2ccc3c(C(=O)NCC4CCC(F)(F)CC4)c(Cl)ccc3n2)CC1 [Compound 72] | 10 to 100 nM | –
COCCCNc1ccc2c(C(=O)NCC3CCC(F)(F)CC3)c(Cl)ccc2n1 [Compound 77, 6-Chloro-2-(3-methoxy-propylamino)-quinoline-5-carboxylic acid (4,4-difluoro-cyclohexyl methyl)-amide] | 101 to 500 nM | –
O=C(NCC1CCC(F)(F)CC1)c1c(Cl)ccc2nc(N3CCCC(C(=O)O)C3)ccc12 (stereo not drawn) [Compound 79, 1-{6-Chloro-5-[(4,4-difluoro-cyclohexylmethyl)-carbamoyl]-quinolin-2-yl}-piperidine-3-carboxylic acid] | 101 to 500 nM | –
CCOC(=O)CCNc1ccc2c(C(=O)NCC3CCC(F)(F)CC3)c(Cl)ccc2n1 [Compound 81, 3-{6-Chloro-5-[(4,4-difluoro-cyclohexylmethyl)-carbamoyl]-quinolin-2-ylamino}-propionic acid ethyl ester] | 101 to 500 nM | –
CN(C)C(=O)CCNc1ccc2c(C(=O)NCC3CCC(F)(F)CC3)c(Cl)ccc2n1 [Compound 82, 6-Chloro-2-(2-dimethylcarbamoyl-ethylamino)-quinoline-5-carboxylic acid (4,4-difluoro-cyclo hexyl methyl)-amide] | 101 to 500 nM | –
O=C(O)CCNc1ccc2c(C(=O)NCC3CCC(F)(F)CC3)c(Cl)ccc2n1 [Compound 83, 3-{6-Chloro-5-[(4,4-difluorocyclohexylmethyl)-carbamoyl]-quinolin-2-ylamino}-propionic acid] | > 1000 nM | –
